Calls of active or inactive are those of the source.
How the values were obtained:
[1] = activation of miR-122 Renilla sensor silencing – cell-based, Huh7 psiCHECK-miR122, Renilla luciferase, cherry-picked, dose response (AID 651956); assay type: functional;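 also: huh7 hepatoma cells stably carrying a psiCHECK-2 miR-122 sensor plasmid; renilla luciferase signal reporting endogenous miR-122 activity after 48 h compound exposure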
[2] = reduced cellular PGC1a acetyl-lysine signal – cell-based, cherry-picked samples, dose response (AID 720514); assay type: functional;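 also: potency may reflect raised or lowered acetylation signal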
[3] = general mammalian cell viability loss – inhibitor set, cherry-pick, set 2, cytotoxicity control for miR-122 modulator project, dose response (AID 720697); assay type: functional, cell-based
HEK293 = test: viability loss in HEK293T cells – cell-based, ATP luminescence, cherry-pick samples, cytotoxicity control, dose response (AID 687005); assay type: functional; conditions: Homo sapiens;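 also: cells exposed to compound for 48 hours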
[4] = HEK293 Cytotoxicity Assay Measured in Cell-Based System Using Plate Reader - 7071-01_Inhibitor_Dose_CherryPick_Activity_Set2.; assay type: functional
[5] = microbe, parasite or virus in culture; assay type: functional; conditions: Mycobacterium tuberculosis
[6] = IC50 of Artemis nuclease activity blockers – biochemical, fluorescence intensity, dose response (AID 720701); assay type: functional;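 also: Artemis endonuclease enzyme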
[7] = inhibitors acting on PAX2 in cells – cell-based, plate reader, dry powder samples, selectivity assay for PAX8 inhibitor project, dose response (AID 743048); assay type: functional;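 also: HEK293 cells carrying a WT1 promoter luciferase reporter driven by expressed Pax2; potency is for inhibition of Pax2 driven reporter signal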
[8] = PAX5 cellular inhibition readout – cell-based, plate reader, dry powder samples, selectivity assay for PAX8 inhibitor project, dose response (AID 743047); assay type: functional;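 also: HEK293 cells carrying a Pax5 driven CD19 promoter luciferase reporter; potency of inhibitors that lower reporter luminescence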
[9] = COV434 cell viability loss – plate reader, dry powder, SA7, cytotoxicity control for PAX8 inhibitor project, dose response (AID 743145); assay type: functional, cell-based
[10] = PAX8-dependent cell viability loss – plate reader, dry powder, dose response (AID 743049); assay type: functional, cell-based
fMet-Leu-Phe receptor = fMet-Leu-Phe receptor (Homo sapiens, UniProt P21462); test: formyl peptide receptor binders – dose response (AID 519); assay type: functional
fMet-Leu-Phe receptor, sequence (P21462 whole entry): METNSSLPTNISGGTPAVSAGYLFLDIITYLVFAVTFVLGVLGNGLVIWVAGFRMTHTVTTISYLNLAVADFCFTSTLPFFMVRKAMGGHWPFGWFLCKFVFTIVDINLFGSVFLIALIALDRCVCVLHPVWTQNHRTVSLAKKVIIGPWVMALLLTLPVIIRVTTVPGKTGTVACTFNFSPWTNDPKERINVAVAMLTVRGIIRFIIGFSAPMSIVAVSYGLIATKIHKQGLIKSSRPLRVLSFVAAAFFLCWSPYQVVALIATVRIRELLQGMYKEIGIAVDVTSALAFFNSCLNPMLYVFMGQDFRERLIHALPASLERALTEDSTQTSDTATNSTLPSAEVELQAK

With `O=C(Nc1ccc(F)cc1)N1CCCCN2[C@H](CO)[C@@H](c3ccc(C#Cc4ccccc4)cc3)[C@H]2C1` the AC50 [1] was 10.5 µM (active), the AC50 [2] was 22.2 µM (active) and the AC50 [3] was 8.31 µM (active).

For `COc1ccc(S(=O)(=O)N[C@H]2C=C[C@H](CC(=O)N3CCC(Cc4ccccc4)CC3)O[C@@H]2CO)cc1`, the AC50 (HEK293) was 9.52 µM (active) and the AC50 [4] was 9.52 µM (active).

For `COc1ccc2nc(NC(=O)C3CCCN(S(=O)(=O)c4cccs4)C3)sc2c1` (configuration not stated), the CC50 [5] was 35.4 µM (active) and the IC50 [6] was > 20 µM (inactive).

With `N#C[C@@H]1[C@@H](c2ccc(C3=CCCCC3)cc2)[C@@H](CO)N1C(=O)NC1CCCCC1` the AC50 [7] was > 32 µM (inactive), the AC50 [8] was 29.3 µM (active) and the AC50 [9] was 67.3 µM (active). The AC50 [10] was 10.6 µM (active).

In the case of `CC(C)OC(=O)c1nnn(-c2nonc2N)c1CN1CCc2ccccc2C1`, the Ki (fMet-Leu-Phe receptor) is reported as 50 µM (inactive).

Source: ChEMBL document CHEMBL1201862, “PubChem BioAssay data set” (2004)
